US8389527B2, “Substituted imidazopyridazines useful as kinase inhibitors” (Bristol-Myers Squibb Company, priority 2008, dated 2013)

Experiments:
recombinant CK2A1 = target: T1, recombinant CK2A1 (Homo sapiens, UniProt P68400); assay: CK2 kinase assay (CK2A1), [γ-33P]ATP filter-binding; type: biochemical
T1 construct: purchased Invitrogen
Method: (§1) The effectiveness of compounds of the present invention as inhibitors of protein kinases can be readily tested by assays known to those skilled in the art. For example, in vitro protein kinase assays may be conducted with a relevant purified protein kinase and an appropriate synthetic substrate to determine the inhibitory activities of the compounds. […] Reaction mixtures were incubated at 30° C. for 1 h, and reaction products were captured by binding to phosphocellulose (P81) filter plates. Incorporation of radioactive phosphate into the peptide substrate was determined by liquid scintillation counting. The potency of compounds in inhibiting CK2 is expressed as IC50, defined as the concentrations of compounds required to inhibit the enzymatic activity by 50%.

recombinant CK2A2 = target: T2, recombinant CK2A2 (Homo sapiens, UniProt P19784); assay: CK2 kinase assay (CK2A2), [γ-33P]ATP filter-binding; type: biochemical
T2 construct: purchased Upstate Biotechnology
Method: as §1

HCT116 = assay: Cell proliferation inhibition assay (MTT, CellTiter96); type: cell-based; details: Homo sapiens, HCT-116; HCT116 cells, 72 h with compound, MTT readout
Method: B. Cell Proliferation Inhibition Assay
Compounds were evaluated for their ability to inhibit cell proliferation, using an assay that measures mitochondrial metabolic activity, that is directly correlated with cell numbers. Cells were plated at 2000 cells/well in 96-well plates and were cultured for 24 h in RPMI-1640 supplemented with 2% fetal bovine serum, before test compounds were added. Compounds were diluted in culture medium such that the final concentration of dimethyl sulfoxide never exceeded 1%. Following the addition of compounds, the cells were cultured for an additional 72 h before cell viability was determined by measuring the conversion of 3-(4,5-dimethylthiazol-2-yl)-2,5-diphenyltetrazolium bromide (MTT) dye using the CellTiter96 kit (Promega).

[1] = recombinant CK2A1 10 nM, ATP 25 μM, 10 μM peptide substrate, 30° C. 1 h
[2] = recombinant CK2A2 5 nM, ATP 5 μM, 10 μM peptide substrate, 30° C. 1 h
[3] = comparison examples of U.S. 2007/038314 (Table 2)

T2 sequence (P19784 whole entry): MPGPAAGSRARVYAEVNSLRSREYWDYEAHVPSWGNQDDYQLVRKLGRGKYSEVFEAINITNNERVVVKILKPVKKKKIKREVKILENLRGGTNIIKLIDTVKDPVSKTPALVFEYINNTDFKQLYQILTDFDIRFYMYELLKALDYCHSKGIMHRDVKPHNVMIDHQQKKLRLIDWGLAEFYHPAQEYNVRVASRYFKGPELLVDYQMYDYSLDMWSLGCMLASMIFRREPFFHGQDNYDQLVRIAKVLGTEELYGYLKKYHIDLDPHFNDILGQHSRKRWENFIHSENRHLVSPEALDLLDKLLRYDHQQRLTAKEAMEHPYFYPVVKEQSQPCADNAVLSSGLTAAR
T1 sequence (P68400 whole entry): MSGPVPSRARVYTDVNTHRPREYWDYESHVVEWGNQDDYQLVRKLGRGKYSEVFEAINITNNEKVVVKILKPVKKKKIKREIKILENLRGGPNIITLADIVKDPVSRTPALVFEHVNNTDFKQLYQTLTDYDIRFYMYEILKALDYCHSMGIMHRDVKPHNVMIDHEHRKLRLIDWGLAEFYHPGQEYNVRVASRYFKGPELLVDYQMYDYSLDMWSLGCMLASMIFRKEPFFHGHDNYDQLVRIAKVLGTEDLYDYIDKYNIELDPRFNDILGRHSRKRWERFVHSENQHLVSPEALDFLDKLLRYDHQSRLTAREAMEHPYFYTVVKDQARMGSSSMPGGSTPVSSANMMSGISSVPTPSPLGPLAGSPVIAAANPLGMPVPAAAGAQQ

| IC50 (recombinant CK2A1; [1]) | IC50 (recombinant CK2A2; [2]) | IC50 (HCT116) | IC50 (recombinant CK2A1; [3]) | IC50 (recombinant CK2A2; [3]) | SMILES |
| --- | --- | --- | --- | --- | --- |
| 38.5 nM | 0.2 nM | 210 nM |  |  | CN[C@H](C)C(=O)N[C@H]1CC[C@H](Nc2cc(NC3CC3)c3ncc(C(=O)Nc4ccnc(Cl)c4)n3n2)CC1 (relative stereo) [Example 154, N-(2-chloro-4-pyridinyl)-8-(cyclopropylamino)-6-((trans-4-((N-methyl-D-alanyl)amino)cyclohexyl)amino)imidazo[1,2-b] pyridazine-3-carboxamide] |
| 35 nM | 15 nM | 80 nM |  |  | N[C@H]1CC[C@H](Nc2cc(NC3CCC3)c3ncc(C(=O)Nc4ccncc4)n3n2)CC1 [Example 3, 6-((trans-4-aminocyclohexyl)amino)-8-(cyclobutylamino)-N-4-pyridinylimidazo[1,2-b]pyridazine-3-carboxamide] |
| 11 nM | 3 nM | 90 nM |  |  | C[C@@H](N)C(=O)N[C@H]1CC[C@H](Nc2cc(Nc3ccccn3)c3ncc(C(=O)Nc4ccncc4F)n3n2)CC1 [Example 6, 6-((trans-4-(D-alanylamino)cyclohexyl)amino)-N-(3-fluoro-4-pyridinyl)-8-(2-pyridinylamino)imidazo[1,2-b]pyridazine-3-carboxamide] |
| 86 nM | 11 nM | 170 nM |  |  | N[C@H]1CC[C@H](Nc2cc(NC3CC3)c3ncc(C(=O)Nc4ccnc(F)c4)n3n2)CC1 [Example 25C, 6-((trans)-4-aminocyclohexylamino)-8-(cyclopropylamino)-N-(2-fluoropyridin-4-yl)imidazo[1,2-b]pyridazine-3-carboxamide] |
| 102 nM | 43 nM | 9950 nM |  |  | Nc1cc(N[C@H]2CC[C@H](N)CC2)nn2c(C(=O)Nc3ccncc3)cnc12 [Example 39, 8-amino-6-(4-aminocyclohexylamino)-N-(pyridin-4-yl)imidazo[1,2-b]pyridazine-3-carboxamide] |
| 34 nM | 8 nM | 140 nM |  |  | O=C(Nc1ccncc1F)c1cnc2c(Nc3cccc(N[C@H]4CC[C@H](O)CC4)n3)cc(N[C@H]3CC[C@H](O)CC3)nn12 [Example 45, N-(3-fluoro-4-pyridinyl)-6-((trans-4-hydroxycyclohexyl)amino)-8-((6-((trans-4-hydroxycyclohexyl)amino)-2-pyridinyl)amino)imidazo[1,2-b]pyridazine-3-carboxamide] |
| 38 nM | 10 nM | 200 nM |  |  | O=C(Nc1ccncc1F)c1cnc2c(NC3CC3)cc(N[C@H]3CC[C@H](NC(=O)[C@H]4CCCN4)CC3)nn12 [Example 104, 8-(cyclopropylamino)-N-(3-fluoro-4-pyridinyl)-6-((trans-4-(D-prolylamino)cyclohexyl)amino)imidazo[1,2-b]pyridazine-3-carboxamide] |
| 31 nM | 8 nM | 300 nM |  |  | NCC(=O)N[C@H]1CC[C@H](Nc2cc(NC3CC3)c3ncc(C(=O)Nc4ccncc4F)n3n2)CC1 [Example 124, 8-(cyclopropylamino)-N-(3-fluoro-4-pyridinyl)-6-((trans-4-(glycylamino)cyclohexyl)amino)imidazo[1,2-b]pyridazine-3-carboxamide] |
| 55 nM | 13 nM | 170 nM |  |  | C[C@H](N)C(=O)N[C@H]1CC[C@H](Nc2cc(NC3CC3)c3ncc(C(=O)Nc4ccnc(F)c4)n3n2)CC1 [Example 134, 6-((trans-4-(L-alanylamino)cyclohexyl)amino)-8-(cyclopropylamino)-N-(2-fluoro-4-pyridinyl)imidazo[1,2-b]pyridazine-3-carboxamide] |
| 199 nM | 70 nM | 340 nM |  |  | NCCCC(=O)N[C@H]1CC[C@H](Nc2cc(NC3CC3)c3ncc(C(=O)Nc4ccnc(F)c4)n3n2)CC1 [Example 143, 6-((trans-4-((4-aminobutanoyl)amino)cyclohexyl)amino)-8-(cyclopropylamino)-N-(2-fluoro-4-pyridinyl)imidazo [1,2-b]pyridazine-3-carboxamide] |
| 25.9 nM | 1.5 nM | 590 nM |  |  | C[C@H](CN)C(=O)N[C@H]1CC[C@H](Nc2cc(NC3CC3)c3ncc(C(=O)Nc4ccnc(Cl)c4)n3n2)CC1 [Example 146, 6-((trans-4-(((2R)-3-amino-2-methylpropanoyl)amino)cyclohexyl)amino) N-(2-chloro-4-pyridinyl)-8-(cyclopropylamino)imidazo [1,2-b]pyridazine-3-carboxamide] |
|  |  |  | > 50000 nM | 10300 nM | CCOc1ccc(Nc2cc(N[C@H]3CC[C@H](N)CC3)nn3ccnc23)cc1 [I(1), reference compound] |
|  |  |  | > 50000 nM | > 50000 nM | N[C@H]1CC[C@H](Nc2cc(Nc3ccccc3)c3nccn3n2)CC1 [I(7), reference compound] |

Continued, compound first:

| SMILES | IC50 (recombinant CK2A1; [1]) | IC50 (recombinant CK2A2; [2]) | IC50 (HCT116) | IC50 (recombinant CK2A1; [3]) | IC50 (recombinant CK2A2; [3]) |
| --- | --- | --- | --- | --- | --- |
| N[C@H](Cc1cscn1)C(=O)N[C@H]1CC[C@H](Nc2cc(NC3CC3)c3ncc(C(=O)Nc4ccnc(Cl)c4)n3n2)CC1 (relative stereo) [Example 179, N-(2-chloro-4-pyridinyl)-8-(cyclopropylamino)-6-((trans-4-((3-(1,3-thiazol-4-yl)-D-alanyl)amino)cyclohexyl)amino)imidazo[1,2-b]pyridazine-3-carboxamide] | 13.8 nM | 0.7 nM | 920 nM |  |  |
| O=C(Nc1ccnc(F)c1)c1cnc2c(NC3CC3)cc(N[C@H]3CC[C@H](O)CC3)nn12 [Example 13, 8-(cyclopropylamino)-N-(2-fluoro-4-pyridinyl)-6-((trans-4-hydroxycyclohexyl)amino)imidazo[1,2-b]pyridazine-3-carboxamide] | 42 nM | 17 nM | 170 nM |  |  |
| O=C(Nc1ccnc(F)c1)c1cnc2c(NC3CC3)cc(N[C@H]3CC[C@H](N4CCOCC4)CC3)nn12 [Example 27, 8-(cyclopropylamino)-N-(2-fluoropyridin-4-yl)-6-((trans)-4-morpholinocyclohexylamino)imidazo[1,2-b]pyridazine-3-carboxamide] | 247 nM | 72 nM | 430 nM |  |  |
| N#CCC(=O)N[C@H]1CC[C@H](Nc2cc(NC3CC3)c3ncc(C(=O)Nc4ccnc(Cl)c4)n3n2)CC1 [Example 34, N-(2-chloropyridin-4-yl)-6-((trans)-4-(2-cyanoacetamido)cyclohexylamino)-8-(cyclopropylamino)imidazo[1,2-b]pyridazine-3-carboxamide] | 11.5 nM | 0.8 nM | 170 nM |  |  |
| CC(=O)Nc1cccc(NC(=O)c2cnc3c(NC4CC4)cc(N[C@H]4CC[C@H](N)CC4)nn23)c1 [Example 83, N-(3-acetamidophenyl)-6-((trans)-4-aminocyclohexylamino)-8-(cyclopropylamino)imidazo[1,2-b]pyridazine-3-carboxamide] | 12300 nM | 4390 nM | > 1000 nM |  |  |
| N#CCC(=O)N[C@H]1CC[C@H](Nc2cc(NC3CC3)c3ncc(C(=O)Nc4ccnc(F)c4)n3n2)CC1 [Example 138, 6-((trans-4-((cyanoacetyl)amino)cyclohexyl)amino)-8-(cyclopropylamino)-N-(2-fluoro-4-pyridinyl)imidazo [1,2-b]pyridazine-3-carboxamide] | 21 nM | 9 nM | 610 nM |  |  |
| O=C(Nc1ccnc(F)c1)c1cnc2c(NC3CC3)cc(N[C@H]3CC[C@H](NC(=O)C4CCCNC4)CC3)nn12 (stereo partly drawn) [Example 144, 8-(cyclopropylamino)-N-(2-fluoro-4-pyridinyl)-6-((trans-4-((3-piperidinylcarbonyl)amino)cyclohexyl)amino) imidazo[1,2-b]pyridazine-3-carboxamide] | 183 nM | 70 nM | > 2500 nM |  |  |
| CNC(C)(C)C(=O)N[C@H]1CC[C@H](Nc2cc(NC3CC3)c3ncc(C(=O)Nc4ccnc(Cl)c4)n3n2)CC1 [Example 159, N-(2-chloro-4-pyridinyl)-8-(cyclopropylamino)-6-((trans-4-((N,2-dimethylalanyl)amino)cyclohexyl)amino) imidazo[1,2-b]pyridazine-3-carboxamide] | 34.1 nM | 2.1 nM | 280 nM |  |  |
| NCC(=O)N[C@H]1CC[C@H](Nc2cc(NC3CC3)c3ncc(C(=O)Nc4ccnc(Cl)c4)n3n2)CC1 [Example 163, N-(2-chloro-4-pyridinyl)-8-(cyclopropylamino)-6-((trans-4-(glycylamino)cyclohexyl)amino)imidazo [1,2-b]pyridazine-3-carboxamide] | 29.6 nM | 0.4 nM | 560 nM |  |  |
| COC(=O)CN[C@H]1CC[C@H](Nc2cc(NC3CC3)c3ncc(C(=O)Nc4ccncc4F)n3n2)CC1 [Example 523, methyl N-(trans-4-((8-(cyclopropylamino)-3-((3-fluoro-4-pyridinyl)carbamoyl)imidazo[1,2-b]pyridazin-6-yl)amino)cyclohexyl)glycinate] | 57 nM |  | 388 nM |  |  |
| Cc1ccc(Nc2cc(N[C@H]3CC[C@H](N)CC3)nn3ccnc23)nc1 [II(16), reference compound] |  |  |  | > 50000 nM |  |
